From patent US20090018019A1, “INCREASING PATHOGEN DEFENCE IN PLANTS” (priority 2005, published 2009)
Entries after “also recorded” stand apart in the source; their conditions may differ.

What was measured:
Assay type in all cases: in vivo
[1] = system: Contig2990_at CHITINASE (EC 3.2.1.14); experiment: DNA chip expression analysis of barley leaves after soil treatment; conditions: 10 mg per plant to soil
Description: (§1) Barley seeds (of the Baroness variety) were sown in pots containing soil about 2 cm deep (1250 g of sandy loam/per pot; the soil moisture content was adjusted to 70% of the maximum water-holding capacity) and cultivated in a climatized chamber under specified light, moisture and temperature conditions (15 h white light, 70% atmospheric humidity, 23-19° C. day/night).
(§2) 14 days after the emergence of the barley plants 10 mg of imidacloprid per plant, dissolved in 100 ml water, were applied by means of a pipette to the soil around the base of the shoot. The same volume of water without any active compound was applied to the control pots. After the soil treatment the plants were no longer watered. At various times after application (0.25; 1; 6; 8; 11; 13; 15; 16 and 17 days) the leaves were harvested, quick-frozen in liquid nitrogen and stored at −80° C. until further treatment.
(§3) The labelled RNA probes for the DNA chip hybridization were produced according to the protocols (Expression Analysis, Technical Manual) of the Affymetrix company (Affymetrix Inc., 3380 Central Expressway, Santa Clara, Calif., USA). Whole RNA was first of all isolated from in each case 500 mg of the harvested leaves. 10 μg portions of whole RNA were used for the first and second strand cDNA synthesis. The cDNA was amplified with T7 polymerase and simultaneously labelled with biotin-UTP. 20 μg portions of this biotinylated cDNA were used for the hybridization of the barley genome array (Barleyl Gene Chip, Item no: 511012) from Affymetrix. This DNA microarray contains DNA sequences of 22840 genes composed of a total of 400000 EST (Expressed Sequence Tag) sequences. Then the DNA microarrays were washed in the Affymetrix Fluidics Station, stained with streptavidin/phycoerythrin (Molecular Probes, P/N S-866) and scanned with the Affymetrix Gene Chip Scanner 3000. The fluorescence data obtained were analyzed with the Microarray Suite 5 software from Affymetrix and the Expressionist Pro software from the GeneData company. After a quality check, all of the DNA chip analyses were stored in a database. Since the Affymetrix Gene Chip System is based on measuring the absolute expression values of the genes contained in the chip, the expression values of the biological replicates of treated and non-treated plants were averaged after normalization (median calculation). With the aid of the statistical ANOVA method, those genes were identified whose expression was increased in the plants treated with imidacloprid but remained relatively constant in the untreated controls. The assembly of gene groups from specific metabolic pathways, signal transduction chains or functions was carried out by a keyword search through the gene annotations supplied by Affymetrix and by linking the genes to their corresponding Gene Ontology Annotations (Gene Ontology Consortium).

[2] = system: Contig2210_at PATHOGENESIS-RELATED PROTEIN 1 PRECURSOR; experiment: as above; conditions: 10 mg per plant to soil
Description: as §1, §2, §3

[3] = system: Contig2788_x_at THAUMATIN-LIKE PROTEIN TLP7; experiment: as above; conditions: 10 mg per plant to soil
Description: as §1, §2, §3

[4] = system: Contig17082_at TRYPSIN INHIBITOR; experiment: as above; conditions: 10 mg per plant to soil
Description: as §1, §2, §3

genes for PR proteins = experiment: DNA chip expression analysis of barley leaves after soil treatment, gene group; conditions: treated plants compared with non-treated plants
Description: as §1, §2
The labelled RNA probes for the DNA chip hybridization were produced according to the protocols (Expression Analysis, Technical Manual) of the Affymetrix company (Affymetrix Inc., 3380 Central Expressway, Santa Clara, Calif., USA). Whole RNA was first of all isolated from in each case 500 mg of the harvested leaves. […] The fluorescence data obtained were analyzed with the Microarray Suite 5 software from Affymetrix and the Expressionist Pro software from the GeneData company. […]

O=[N+]([O-])/N=C1\NCCN1Cc1ccc(Cl)nc1 [imidacloprid]
Induction factor = Expression (treated)/Expression (untreated) ([1]; 0.25 d): 0.9 | Median of the raw expression data, treated ([1]; 0.25 days): 31.12 | Induction factor = Expression (treated)/Expression (untreated) ([1]; 1 d): 0.9 | Median of the raw expression data, treated ([1]; 1 day): 29.13 | Induction factor = Expression (treated)/Expression (untreated) ([1]; 6 d): 8.4 | Median of the raw expression data, treated ([1]; 6 days): 561.20 | Induction factor = Expression (treated)/Expression (untreated) ([1]; 8 d): 19.3 | Median of the raw expression data, treated ([1]; 8 days): 830.74 | Induction factor = Expression (treated)/Expression (untreated) ([1]; 11 d): 13.6 | Median of the raw expression data, treated ([1]; 11 days): 664.56 | Induction factor = Expression (treated)/Expression (untreated) ([1]; 13 d): 3.0 | Median of the raw expression data, treated ([1]; 13 days): 235.46 | Induction factor = Expression (treated)/Expression (untreated) ([1]; 15 d): 1.1 | Median of the raw expression data, treated ([1]; 15 days): 227.32 | Induction factor = Expression (treated)/Expression (untreated) ([1]; 16 d): 2.5 | Median of the raw expression data, treated ([1]; 16 days): 76.80 | Induction factor = Expression (treated)/Expression (untreated) ([1]; 17 d): 0.6 | Median of the raw expression data, treated ([1]; 17 days): 32.84 | Induction factor = Expression (treated)/Expression (untreated) ([2]; 0.25 d): 0.6 | Median of the raw expression data, treated ([2]; 0.25 days): 143.08 | Induction factor = Expression (treated)/Expression (untreated) ([2]; 1 d): 0.4 | Median of the raw expression data, treated ([2]; 1 day): 78.12 | Induction factor = Expression (treated)/Expression (untreated) ([2]; 6 d): 7.9 | Median of the raw expression data, treated ([2]; 6 days): 6881.20 | Induction factor = Expression (treated)/Expression (untreated) ([2]; 8 d): 8.8 | Median of the raw expression data, treated ([2]; 8 days): 8961.17 | Induction factor = Expression (treated)/Expression (untreated) ([2]; 11 d): 5.4 | Median of the raw expression data, treated ([2]; 11 days): 7946.25 | Induction factor = Expression (treated)/Expression (untreated) ([2]; 13 d): 3.6 | Median of the raw expression data, treated ([2]; 13 days): 1553.93 | Induction factor = Expression (treated)/Expression (untreated) ([2]; 15 d): 2.8 | Median of the raw expression data, treated ([2]; 15 days): 1970.04 | Induction factor = Expression (treated)/Expression (untreated) ([2]; 16 d): 2.4 | Median of the raw expression data, treated ([2]; 16 days): 2013.49 | Induction factor = Expression (treated)/Expression (untreated) ([2]; 17 d): 0.7 | Median of the raw expression data, treated ([2]; 17 days): 1121.55 | Induction factor = Expression (treated)/Expression (untreated) ([3]; 0.25 d): 0.8 | Median of the raw expression data, treated ([3]; 0.25 days): 71.22 | Induction factor = Expression (treated)/Expression (untreated) ([3]; 1 d): 0.7 | Median of the raw expression data, treated ([3]; 1 day): 70.44 | Induction factor = Expression (treated)/Expression (untreated) ([3]; 6 d): 12.2 | Median of the raw expression data, treated ([3]; 6 days): 5432.88 | Induction factor = Expression (treated)/Expression (untreated) ([3]; 8 d): 8.0 | Median of the raw expression data, treated ([3]; 8 days): 7952.61 | Induction factor = Expression (treated)/Expression (untreated) ([3]; 11 d): 6.3 | Median of the raw expression data, treated ([3]; 11 days): 12190.31 | Induction factor = Expression (treated)/Expression (untreated) ([3]; 13 d): 2.3 | Median of the raw expression data, treated ([3]; 13 days): 4800.62 | Induction factor = Expression (treated)/Expression (untreated) ([3]; 15 d): 1.5 | Median of the raw expression data, treated ([3]; 15 days): 4880.14 | Induction factor = Expression (treated)/Expression (untreated) ([3]; 16 d): 2.5 | Median of the raw expression data, treated ([3]; 16 days): 1836.52 | Induction factor = Expression (treated)/Expression (untreated) ([3]; 17 d): 1.2 | Median of the raw expression data, treated ([3]; 17 days): 1166.53 | Induction factor = Expression (treated)/Expression (untreated) ([4]; 0.25 d): 0.9 | Median of the raw expression data, treated ([4]; 0.25 days): 161.42 | Induction factor = Expression (treated)/Expression (untreated) ([4]; 1 d): 1.1 | Median of the raw expression data, treated ([4]; 1 day): 162.50 | Induction factor = Expression (treated)/Expression (untreated) ([4]; 6 d): 3.8 | Median of the raw expression data, treated ([4]; 6 days): 745.06 | Induction factor = Expression (treated)/Expression (untreated) ([4]; 8 d): 3.7 | Median of the raw expression data, treated ([4]; 8 days): 853.21 | Induction factor = Expression (treated)/Expression (untreated) ([4]; 11 d): 3.6 | Median of the raw expression data, treated ([4]; 11 days): 911.63 | Induction factor = Expression (treated)/Expression (untreated) ([4]; 13 d): 2.2 | Median of the raw expression data, treated ([4]; 13 days): 281.55 | Induction factor = Expression (treated)/Expression (untreated) ([4]; 15 d): 1.5 | Median of the raw expression data, treated ([4]; 15 days): 209.34 | Induction factor = Expression (treated)/Expression (untreated) ([4]; 16 d): 1.6 | Median of the raw expression data, treated ([4]; 16 days): 276.41 | Induction factor = Expression (treated)/Expression (untreated) ([4]; 17 d): 1.1 | Median of the raw expression data, treated ([4]; 17 days): 225.25 | expression of genes for PR proteins (genes for PR proteins): increased expression; also recorded: powerful induction
